Target: T1, recombinant human Estrogen Receptor alpha ligand binding domain, residues 307-554 (ER alpha-LBD (GST)) (Homo sapiens, UniProt P03372)
T1 construct: made in house
T1 sequence (P03372 307-554): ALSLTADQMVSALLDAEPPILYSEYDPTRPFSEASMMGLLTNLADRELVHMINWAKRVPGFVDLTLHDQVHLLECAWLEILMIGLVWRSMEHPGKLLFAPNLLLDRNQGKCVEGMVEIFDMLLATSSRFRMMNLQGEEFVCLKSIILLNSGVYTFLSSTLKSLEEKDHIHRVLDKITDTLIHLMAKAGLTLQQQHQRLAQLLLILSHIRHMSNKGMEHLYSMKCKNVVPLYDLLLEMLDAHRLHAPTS
Experiment: ERα binding assay (LanthaScreen TR-FRET competition)
Details: TR-FRET competition with Fluormone ES2 tracer, 4 hours at room temperature; single experiment or average of two or more

SMILES | IC50 [nM]
Cc1ncsc1-c1ccc(CNC(=O)[C@@H]2C[C@@H](O)CN2C(=O)[C@@H](NC(=O)COCCOCCOCCCNC(=O)c2cc(F)c([C@@H]3c4[nH]c5ccccc5c4C[C@@H](C)N3CC(C)(C)F)c(F)c2)C(C)(C)C)cc1 [Example 84, (2S,4R)-1-((S)-16-(tert-Butyl)-1-(3,5-difluoro-4-((1R,3R)-2-(2-fluoro-2-methylpropyl)-3-methyl-2,3,4,9-tetrahydro-1H-pyrido[3,4-b]indol-1-yl)phenyl)-1,14-dioxo-6,9,12-trioxa-2,15-diazaheptadecan-17-oyl)-4-hydroxy-N-(4-(4-methylthiazol-5-yl)benzyl)pyrrolidine-2-carboxamide] | 1.3
Cc1ncsc1-c1ccc(CNC(=O)[C@@H]2C[C@@H](O)CN2C(=O)[C@@H](NC(=O)COCCOCCOCCNC(=O)c2cc(F)c([C@@H]3c4[nH]c5ccccc5c4C[C@@H](C)N3CC(C)(C)F)c(F)c2)C(C)(C)C)cc1 [Example 91, (2S,4R)-1-((S)-15-(tert-Butyl)-1-(3,5-difluoro-4-((1R,3R)-2-(2-fluoro-2-methylpropyl)-3-methyl-2,3,4,9-tetrahydro-1H-pyrido[3,4-b]indol-1-yl)phenyl)-1,13-dioxo-5,8,11-trioxa-2,14-diazahexadecan-16-oyl)-4-hydroxy-N-(4-(4-methylthiazol-5-yl)benzyl)pyrrolidine-2-carboxamide] | 1.3
Cc1ncsc1-c1ccc(CNC(=O)[C@@H]2C[C@@H](O)CN2C(=O)[C@@H](NC(=O)COc2ccc(OCCNC(=O)/C=C/c3cc(F)c([C@@H]4c5[nH]c6ccccc6c5C[C@@H](C)N4CC(C)(C)F)c(F)c3)cc2)C(C)(C)C)cc1 [Example 61, (2S,4R)-1-((S)-2-(2-(4-(2-((E)-3-(3,5-difluoro-4-((1R,3R)-2-(2-fluoro-2-methylpropyl)-3-methyl-2,3,4,9-tetrahydro-1H-pyrido[3,4-b]indol-1-yl)phenyl)acrylamido)ethoxy)phenoxy)acetamido)-3,3-dimethylbutanoyl)-4-hydroxy-N-(4-(4-methylthiazol-5-yl)benzyl)pyrrolidine-2-carboxamide, Trifluoroacetic Acid] | 1
Cc1ncsc1-c1ccc(CNC(=O)[C@@H]2C[C@@H](O)CN2C(=O)[C@@H](NC(=O)COCCOCCOCCOc2cc(F)c([C@@H]3c4[nH]c5ccccc5c4C[C@@H](C)N3CC(F)(F)F)c(F)c2)C(C)(C)C)cc1 [Example 95, (2S,4R)-1-((S)-2-(tert-Butyl)-14-(3,5-difluoro-4-((1R,3R)-3-methyl-2-(2,2,2-trifluoroethyl)-2,3,4,9-tetrahydro-1H-pyrido[3,4-b]indol-1-yl)phenoxy)-4-oxo-6,9,12-trioxa-3-azatetradecanoyl)-4-hydroxy-N-(4-(4-methylthiazol-5-yl)benzyl)pyrrolidine-2-carboxamide] | 1.2
Cc1ncsc1-c1ccc(CNC(=O)[C@@H]2C[C@@H](O)CN2C(=O)[C@@H](NC(=O)c2ccc(N3CCN(CCNC(=O)/C=C/c4cc(F)c([C@@H]5c6[nH]c7ccccc7c6C[C@@H](C)N5CC(C)(C)F)c(F)c4)CC3)cc2)C(C)(C)C)cc1 [Example 67, (2S,4R)-1-((S)-2-(4-(4-(2-((E)-3-(3,5-difluoro-4-((1R,3R)-2-(2-fluoro-2-methylpropyl)-3-methyl-2,3,4,9-tetrahydro-1H-pyrido[3,4-b]indol-1-yl)phenyl)acrylamido)ethyl)piperazin-1-yl)benzamido)-3,3-dimethylbutanoyl)-4-hydroxy-N-(4-(4-methylthiazol-5-yl)benzyl)pyrrolidine-2-carboxamide, Trifluoroacetic Acid] | 1.1
Cc1ncsc1-c1ccc(CNC(=O)[C@@H]2C[C@@H](O)CN2C(=O)[C@@H](NC(=O)CCCCNC(=O)/C=C/c2cc(F)c([C@@H]3c4[nH]c5ccccc5c4C[C@@H](C)N3CC(C)(C)F)c(F)c2)C(C)(C)C)cc1 [Example 60, (2S,4R)-1-((S)-2-(5-((E)-3-(3,5-difluoro-4-((1R,3R)-2-(2-fluoro-2-methylpropyl)-3-methyl-2,3,4,9-tetrahydro-1H-pyrido[3,4-b]indol-1-yl)phenyl)acrylamido)pentanamido)-3,3-dimethylbutanoyl)-4-hydroxy-N-(4-(4-methylthiazol-5-yl)benzyl)pyrrolidine-2-carboxamide, Trifluoroacetic Acid] | 0.7
Cc1ncsc1-c1ccc(CNC(=O)[C@@H]2C[C@@H](O)CN2C(=O)[C@@H](NC(=O)COCc2ccc(COc3cc(F)c([C@@H]4c5[nH]c6ccccc6c5C[C@@H](C)N4CC(C)(C)F)c(F)c3)cn2)C(C)(C)C)cc1 [Example 86, (2S,4R)-1-((S)-2-(2-((5-((3,5-Difluoro-4-((1R,3R)-2-(2-fluoro-2-methylpropyl)-3-methyl-2,3,4,9-tetrahydro-1H-pyrido[3,4-b]indol-1-yl)phenoxy)methyl)pyridin-2-yl)methoxy)acetamido)-3,3-dimethylbutanoyl)-4-hydroxy-N-(4-(4-methylthiazol-5-yl)benzyl)pyrrolidine-2-carboxamide] | 0.7
Cc1ncsc1-c1ccc(CNC(=O)[C@@H]2C[C@@H](O)CN2C(=O)[C@@H](NC(=O)COCc2ccc(OCCOc3cc(F)c([C@@H]4c5[nH]c6ccccc6c5C[C@@H](C)N4CC(C)(C)F)c(F)c3)cc2)C(C)(C)C)cc1 [Example 4, (2S,4R)-1-((S)-2-(2-((4-(2-(3,5-Difluoro-4-((1R,3R)-2-(2-fluoro-2-methylpropyl)-3-methyl-2,3,4,9-tetrahydro-1H-pyrido[3,4-b]indol-1-yl)phenoxy)ethoxy)benzyl)oxy)acetamido)-3,3-dimethylbutanoyl)-4-hydroxy-N-(4-(4-methylthiazol-5-yl)benzyl)pyrrolidine-2-carboxamide] | 0.8
Cc1ncsc1-c1ccc(CNC(=O)[C@@H]2C[C@@H](O)CN2C(=O)[C@@H](NC(=O)COCCCCCCCOc2cc(F)c([C@@H]3c4[nH]c5ccccc5c4C[C@@H](C)N3CC(F)(F)CO)c(F)c2)C(C)(C)C)cc1 [Example 78, (2S,4R)-1-((S)-2-(2-((7-(4-((1R,3R)-2-(2,2-Difluoro-3-hydroxypropyl)-3-methyl-2,3,4,9-tetrahydro-1H-pyrido[3,4-b]indol-1-yl)-3,5-difluorophenoxy)heptyl)oxy)acetamido)-3,3-dimethylbutanoyl)-4-hydroxy-N-(4-(4-methylthiazol-5-yl)benzyl)pyrrolidine-2-carboxamide] | 0.5
Cc1ncsc1-c1ccc(CNC(=O)[C@@H]2C[C@@H](O)CN2C(=O)[C@@H](NC(=O)COCc2ccc(COc3cc(F)c([C@@H]4c5[nH]c6ccccc6c5C[C@@H](C)N4CC(C)(C)F)c(F)c3)nc2)C(C)(C)C)cc1 [Example 85, (2S,4R)-1-((S)-2-(2-((6-((3,5-difluoro-4-((1R,3R)-2-(2-fluoro-2-methylpropyl)-3-methyl-2,3,4,9-tetrahydro-1H-pyrido[3,4-b]indol-1-yl)phenoxy)methyl)pyridin-3-yl)methoxy)acetamido)-3,3-dimethylbutanoyl)-4-hydroxy-N-(4-(4-methylthiazol-5-yl)benzyl)pyrrolidine-2-carboxamide] | 0.9
